# From ChEMBL document CHEMBL3885861, “Open TG-GATES”
# Organism: Rattus norvegicus
# Experiment: Open TG-GATES - Regimen: Daily Repeat
# Assay type: toxicity, organism-based, Sprague-Dawley
# Design: regimen Daily Repeat, gender Male, age 6 weeks
# Details: in vivo, po, route gavage; for APTT / Bas / Eos / Fbg / Ht / Lym / MCHC / MCV / Mono / PT / Plat / RBC / Ret / WBC: tissue Blood; for KIDNEY_L / KIDNEY_R / KIDNEY_TOTAL: tissue Kidney; for LIVER: tissue Liver; for ALP / ALT / AST / BUN / CRE / Ca / Cl / DBIL / IP / LDH / Na / PL / RALB / TBIL / TC / TG / TP / gamma-GTP: tissue Plasma
# [1] = 120 mg/kg, 72 h, dose level Middle, time 3 day
# [2] = 120 mg/kg, […], dose level Middle, time 7 day
# [3] = 120 mg/kg, […], dose level Middle, time 14 day
# [4] = 120 mg/kg, […], dose level Middle, time 28 day
# [5] = 400 mg/kg, 72 h, dose level High, time 3 day
# [6] = 400 mg/kg, […], dose level High, time 7 day
# [7] = 400 mg/kg, […], dose level High, time 14 day
# [8] = 400 mg/kg, […], dose level High, time 28 day
compound,measurement,setting,value
CC(C)N(CCC(C(N)=O)(c1ccccc1)c1ccccn1)C(C)C (stereo not given) [DISOPYRAMIDE],APTT,[1],20.4 s
same,Bas,[1],0%
same,Eos,[1],1%
same,Fbg,[1],319.6 mg/dL
same,Ht,[1],41.1%
same,Lym,[1],78.4%
same,MCHC,[1],32.2%
same,MCV,[1],62.6 fL
same,Mono,[1],2.6%
same,PT,[1],15.5 s
same,Plat,[1],125 x10_4/uL
same,RBC,[1],657.8 x10_4/ul
same,Ret,[1],5.3%
same,WBC,[1],107.5 x10_2/uL
same,KIDNEY_L,[1],1 g
same,KIDNEY_R,[1],1 g
same,KIDNEY_TOTAL,[1],2 g
same,LIVER,[1],10.6 g
same,ALP,[1],1634.4 IU/L
same,ALT,[1],52.4 IU/L
same,AST,[1],74 IU/L
same,BUN,[1],15.6 mg/dL
same,CRE,[1],0.2 mg/dL
same,Ca,[1],10.8 mg/dL
same,Cl,[1],106.6 meq/L
same,DBIL,[1],0 mg/dL
same,IP,[1],7.7 mg/dL
same,LDH,[1],174.6 IU/L
same,Na,[1],142.8 meq/L
same,PL,[1],151.2 mg/dL
same,RALB,[1],2.9 g/dL
same,TBIL,[1],0 mg/dL
same,TC,[1],79.2 mg/dL
same,TG,[1],111.8 mg/dL
same,TP,[1],5.4 g/dL
same,gamma-GTP,[1],1.6 IU/L
same,TERMINAL_BW,[2],247.4 g
same,TERMINAL_BW,[3],313.2 g
same,TERMINAL_BW,[4],369.7 g
same,APTT,[2],21.5 s
same,Bas,[2],0%
same,Eos,[2],1%
same,Fbg,[2],327.2 mg/dL
same,Ht,[2],41%
same,Lym,[2],82%
same,MCHC,[2],32.6%
same,MCV,[2],59.6 fL
same,Mono,[2],1.8%
same,PT,[2],15.8 s
same,Plat,[2],116.6 x10_4/uL
same,RBC,[2],688.8 x10_4/ul
same,Ret,[2],5.7%
same,WBC,[2],102 x10_2/uL
same,APTT,[3],23.1 s
same,Bas,[3],0%
same,Eos,[3],0.8%
same,Fbg,[3],331.4 mg/dL
same,Ht,[3],41.2%
same,Lym,[3],79.8%
same,MCHC,[3],32.5%
same,MCV,[3],58.9 fL
same,Mono,[3],2.4%
same,PT,[3],15.5 s
same,Plat,[3],117.3 x10_4/uL
same,RBC,[3],700.2 x10_4/ul
same,Ret,[3],4.5%
same,WBC,[3],125.1 x10_2/uL
same,APTT,[4],24.7 s
same,Bas,[4],0%
same,Eos,[4],1%
same,Fbg,[4],323.2 mg/dL
same,Ht,[4],42.5%
same,Lym,[4],79.2%
same,MCHC,[4],33.7%
same,MCV,[4],55.5 fL
same,Mono,[4],2.4%
same,PT,[4],15.2 s
same,Plat,[4],103.8 x10_4/uL
same,RBC,[4],768.2 x10_4/ul
same,Ret,[4],2.6%
same,WBC,[4],105.7 x10_2/uL
same,KIDNEY_L,[2],1.1 g
same,KIDNEY_R,[2],1.1 g
same,KIDNEY_TOTAL,[2],2.2 g
same,KIDNEY_L,[3],1.2 g
same,KIDNEY_R,[3],1.3 g
same,KIDNEY_TOTAL,[3],2.5 g
same,KIDNEY_L,[4],1.4 g
same,KIDNEY_R,[4],1.5 g
same,KIDNEY_TOTAL,[4],2.9 g
same,LIVER,[2],11.4 g
same,LIVER,[3],14.2 g
same,LIVER,[4],15.6 g
same,ALP,[2],1449.8 IU/L
same,ALT,[2],48.2 IU/L
same,AST,[2],77.4 IU/L
same,BUN,[2],16.4 mg/dL
same,CRE,[2],0.2 mg/dL
same,Ca,[2],10.6 mg/dL
same,Cl,[2],106.2 meq/L
same,DBIL,[2],0 mg/dL
same,IP,[2],7.5 mg/dL
same,LDH,[2],167.8 IU/L
same,Na,[2],141.6 meq/L
same,PL,[2],145 mg/dL
same,RALB,[2],3 g/dL
same,TBIL,[2],0 mg/dL
same,TC,[2],75.8 mg/dL
same,TG,[2],107.8 mg/dL
same,TP,[2],5.5 g/dL
same,gamma-GTP,[2],1.4 IU/L
same,ALP,[3],1779.4 IU/L
same,ALT,[3],41.4 IU/L
same,AST,[3],64.8 IU/L
same,BUN,[3],15.6 mg/dL
same,CRE,[3],0.1 mg/dL
same,Ca,[3],10.6 mg/dL
same,Cl,[3],105.6 meq/L
same,DBIL,[3],0 mg/dL
same,IP,[3],7.1 mg/dL
same,LDH,[3],139.4 IU/L
same,Na,[3],142.6 meq/L
same,PL,[3],146.6 mg/dL
same,RALB,[3],3.1 g/dL
same,TBIL,[3],0.004 mg/dL
same,TC,[3],66 mg/dL
same,TG,[3],194 mg/dL
same,TP,[3],5.8 g/dL
same,gamma-GTP,[3],2 IU/L
same,ALP,[4],1162.8 IU/L
same,ALT,[4],55 IU/L
same,AST,[4],85.2 IU/L
same,BUN,[4],17 mg/dL
same,CRE,[4],0.2 mg/dL
same,Ca,[4],10.7 mg/dL
same,Cl,[4],106.4 meq/L
same,DBIL,[4],0 mg/dL
same,IP,[4],6.7 mg/dL
same,LDH,[4],190.2 IU/L
same,Na,[4],140.6 meq/L
same,PL,[4],151 mg/dL
same,RALB,[4],2.9 g/dL
same,TBIL,[4],0.012 mg/dL
same,TC,[4],79.6 mg/dL
same,TG,[4],112.4 mg/dL
same,TP,[4],5.9 g/dL
same,gamma-GTP,[4],2.2 IU/L
same,TERMINAL_BW,[5],214.9 g
same,APTT,[5],22.4 s
same,Bas,[5],0%
same,Eos,[5],0.8%
same,Fbg,[5],351.2 mg/dL
same,Ht,[5],42.4%
same,Lym,[5],73.2%
same,MCHC,[5],32.4%
same,MCV,[5],62.3 fL
same,Mono,[5],2%
same,PT,[5],15.6 s
same,Plat,[5],129.4 x10_4/uL
same,RBC,[5],681.2 x10_4/ul
same,Ret,[5],3.3%
same,WBC,[5],80.5 x10_2/uL
same,KIDNEY_L,[5],0.9 g
same,KIDNEY_R,[5],1 g
same,KIDNEY_TOTAL,[5],1.9 g
same,LIVER,[5],9.5 g
same,ALP,[5],1597.6 IU/L
same,ALT,[5],40.4 IU/L
same,AST,[5],70.2 IU/L
same,BUN,[5],12.8 mg/dL
same,CRE,[5],0.2 mg/dL
same,Ca,[5],10.8 mg/dL
same,Cl,[5],107.2 meq/L
same,DBIL,[5],0 mg/dL
same,IP,[5],7.4 mg/dL
same,LDH,[5],182.6 IU/L
same,Na,[5],143 meq/L
same,PL,[5],137.8 mg/dL
same,RALB,[5],2.9 g/dL
same,TBIL,[5],0 mg/dL
same,TC,[5],74.4 mg/dL
same,TG,[5],83.6 mg/dL
same,TP,[5],5.5 g/dL
same,gamma-GTP,[5],1.4 IU/L
same,TERMINAL_BW,[6],229.8 g
same,TERMINAL_BW,[7],278.8 g
same,TERMINAL_BW,[8],316.5 g
same,APTT,[6],23.9 s
same,Bas,[6],0%
same,Eos,[6],1.2%
same,Fbg,[6],346.8 mg/dL
same,Ht,[6],41.6%
same,Lym,[6],74.4%
same,MCHC,[6],33.3%
same,MCV,[6],60.2 fL
same,Mono,[6],3%
same,PT,[6],15.7 s
same,Plat,[6],112.7 x10_4/uL
same,RBC,[6],691.2 x10_4/ul
same,Ret,[6],4.2%
same,WBC,[6],123.8 x10_2/uL
same,APTT,[7],25.3 s
same,Bas,[7],0%
same,Eos,[7],1%
same,Fbg,[7],316.4 mg/dL
same,Ht,[7],41.7%
same,Lym,[7],79.4%
same,MCHC,[7],32.7%
same,MCV,[7],58.7 fL
same,Mono,[7],1.8%
same,PT,[7],15.2 s
same,Plat,[7],102.3 x10_4/uL
same,RBC,[7],710.4 x10_4/ul
same,Ret,[7],4.4%
same,WBC,[7],103 x10_2/uL
same,APTT,[8],26 s
same,Bas,[8],0%
same,Eos,[8],1.2%
same,Fbg,[8],345.5 mg/dL
same,Ht,[8],44.9%
same,Lym,[8],79%
same,MCHC,[8],33.7%
same,MCV,[8],55.6 fL
same,Mono,[8],2.5%
same,PT,[8],15.3 s
same,Plat,[8],98.6 x10_4/uL
same,RBC,[8],808.8 x10_4/ul
same,Ret,[8],2.4%
same,WBC,[8],105 x10_2/uL
same,KIDNEY_L,[6],1 g
same,KIDNEY_R,[6],1 g
same,KIDNEY_TOTAL,[6],2 g
same,KIDNEY_L,[7],1.1 g
same,KIDNEY_R,[7],1.2 g
same,KIDNEY_TOTAL,[7],2.3 g
same,KIDNEY_L,[8],1.2 g
same,KIDNEY_R,[8],1.3 g
same,KIDNEY_TOTAL,[8],2.5 g
same,LIVER,[6],11 g
same,LIVER,[7],12.8 g
same,LIVER,[8],13.4 g
same,ALP,[6],1394 IU/L
same,ALT,[6],45 IU/L
same,AST,[6],67.2 IU/L
same,BUN,[6],14.8 mg/dL
same,CRE,[6],0.2 mg/dL
same,Ca,[6],10.8 mg/dL
same,Cl,[6],105.4 meq/L
same,DBIL,[6],0 mg/dL
same,IP,[6],8 mg/dL
same,LDH,[6],160.8 IU/L
same,Na,[6],141.6 meq/L
same,PL,[6],170.6 mg/dL
same,RALB,[6],2.9 g/dL
same,TBIL,[6],0 mg/dL
same,TC,[6],80.6 mg/dL
same,TG,[6],195.4 mg/dL
same,TP,[6],5.4 g/dL
same,gamma-GTP,[6],1.4 IU/L
same,ALP,[7],1544.2 IU/L
same,ALT,[7],44 IU/L
same,AST,[7],68 IU/L
same,BUN,[7],15.2 mg/dL
same,CRE,[7],0.1 mg/dL
same,Ca,[7],10.6 mg/dL
same,Cl,[7],104.2 meq/L
same,DBIL,[7],0 mg/dL
same,IP,[7],7.9 mg/dL
same,LDH,[7],149.6 IU/L
same,Na,[7],143.2 meq/L
same,PL,[7],149.6 mg/dL
same,RALB,[7],3 g/dL
same,TBIL,[7],0.002 mg/dL
same,TC,[7],74.4 mg/dL
same,TG,[7],147.2 mg/dL
same,TP,[7],5.6 g/dL
same,gamma-GTP,[7],1.6 IU/L
same,ALP,[8],1456 IU/L
same,ALT,[8],66 IU/L
same,AST,[8],98.2 IU/L
same,BUN,[8],17.5 mg/dL
same,CRE,[8],0.2 mg/dL
same,Ca,[8],10.4 mg/dL
same,Cl,[8],106 meq/L
same,DBIL,[8],0 mg/dL
same,IP,[8],6.6 mg/dL
same,LDH,[8],170.5 IU/L
same,Na,[8],141.2 meq/L
same,PL,[8],152.5 mg/dL
same,RALB,[8],3 g/dL
same,TBIL,[8],0 mg/dL
same,TC,[8],75.5 mg/dL
same,TG,[8],165.2 mg/dL
same,TP,[8],5.8 g/dL
same,gamma-GTP,[8],2 IU/L
